A value given as a limit tells only on which side of the number the result lay.

The source of these data is patent publication US20120101032A1, “NOVEL MACROCYCLIC INHIBITORS OF HEPATITIS C VIRUS REPLICATION” (priority 2010, published 2012).

In one experiment the test system is hepatitis C replicon. The experiment in a line: hepatitis C replicon EC50 assay. It is filed as cell-based. Particulars: Hepatitis C virus; hepatitis C replicon; read-out: EC50. From the text: NS3-NS4 inhibition activity can be determined using known assay methods.
In general terms: Replicon systems follow genome replication, usually without infectious particles.

The target of the next experiment is NS3/NS4 complexes (Hepatitis C virus genotype 1a, UniProt P27958). The experiment in a line: biochemical. Particulars: NS3-NS4 activity; 23° C., pH 7.5, 25 μM NS4A peptide; read-out: IC50. From the text:
NS3-NS4 inhibition activity can be determined using known assay methods. For example, NS3/NS4 complexes may be formed and inhibitory concentrations of test compounds determined as described in U.S. Patent Application Publication Number 2007/0054842 paragraph numbers 1497-1509, which is incorporated herein by reference in its entirety. Similarly, hepatitis C replicon EC50 may be determined using known assay methods such as described in U.S. Patent Application Publication Number 2007/0054842 paragraph numbers 1510-1515, which is incorporated herein by reference in its entirety. Assays may be conducted at ambient temperature (23° C.) in assay buffer containing 50 mM Tris-HCl, pH 7.5, 15% glycerol, 0.6 mM Lauryldimethylamine Oxide (LDAO), 25 μM NS4A peptide, and 10 mM Dithiothreitol (DTT).

NS3/NS4 complexes, sequence (P27958 1027-1657, one chain of several): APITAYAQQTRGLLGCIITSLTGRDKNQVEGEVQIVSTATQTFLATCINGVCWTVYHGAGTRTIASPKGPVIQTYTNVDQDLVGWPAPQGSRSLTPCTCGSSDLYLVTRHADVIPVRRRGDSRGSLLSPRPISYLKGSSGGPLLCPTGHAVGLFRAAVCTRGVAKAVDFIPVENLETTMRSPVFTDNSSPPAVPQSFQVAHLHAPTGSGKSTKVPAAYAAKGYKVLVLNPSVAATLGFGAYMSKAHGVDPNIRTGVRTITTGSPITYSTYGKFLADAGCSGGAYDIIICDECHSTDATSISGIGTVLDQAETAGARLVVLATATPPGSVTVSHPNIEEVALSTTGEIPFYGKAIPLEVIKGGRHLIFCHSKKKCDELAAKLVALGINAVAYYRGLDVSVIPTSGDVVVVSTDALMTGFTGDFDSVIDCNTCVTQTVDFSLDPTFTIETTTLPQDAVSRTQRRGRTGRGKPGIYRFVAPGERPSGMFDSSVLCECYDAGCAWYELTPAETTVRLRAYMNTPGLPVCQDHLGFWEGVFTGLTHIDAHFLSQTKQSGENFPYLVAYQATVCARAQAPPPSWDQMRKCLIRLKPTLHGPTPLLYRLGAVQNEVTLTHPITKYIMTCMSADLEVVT

Take `COc1cccc(-c2csc(-c3cccc4c3nc(O[C@@H]3C[C@H]5C(=O)N[C@]6(C(=O)NS(=O)(=O)N(C)C)C[C@H]6/C=C\CCCCC[C@H](NC(=O)OC(C)(C)C)C(=O)N5C3)n4C(C)C)n2)c1` [Compound 132]: the EC50 with hepatitis C replicon lay within 0.01 to 0.1 µM. At NS3/NS4 complexes, the 50% inhibitory concentration (IC50) was less than 0.01 µM.
The like results for `CC(C)n1c(O[C@@H]2C[C@H]3C(=O)N[C@]4(C(=O)NS(=O)(=O)N(C)C)C[C@H]4/C=C\CCCCC[C@H](NC(=O)OC(C)(C)C)C(=O)N3C2)nc2c(-c3nc(-c4cccc(F)c4)cs3)cccc21` [Compound 133] were, in that order, 0.01 to 0.1 µM and less than 0.01 µM.
The corresponding values for `CC(C)n1c(O[C@@H]2C[C@H]3C(=O)N[C@]4(C(=O)NS(=O)(=O)N(C)C)C[C@H]4/C=C\CCCCC[C@H](NC(=O)OC(C)(C)C)C(=O)N3C2)nc2c(-c3nc(-c4ccc(F)cc4)cs3)cccc21` [Compound 134] are 0.01 to 0.1 µM and less than 0.01 µM.
The corresponding values for `CC(C)n1c(O[C@@H]2C[C@H]3C(=O)N[C@]4(C(=O)NS(=O)(=O)N(C)C)C[C@H]4/C=C\CCCCC[C@H](NC(=O)OC(C)(C)C)C(=O)N3C2)nc2c(-c3nc(-c4ccc(F)c(C(F)(F)F)c4)cs3)cccc21` [Compound 135] are greater than 0.1 µM and less than 0.01 µM.
As for `CC(C)n1c(O[C@@H]2C[C@H]3C(=O)N[C@]4(C(=O)NS(=O)(=O)N(C)C)C[C@H]4/C=C\CCCCC[C@H](NC(=O)OC(C)(C)C)C(=O)N3C2)nc2c(-c3nc(-c4ccc(OC(F)(F)F)cc4)cs3)cccc21` [Compound 136], the EC50 with hepatitis C replicon is greater than 0.1 µM. The concentration for half-maximal inhibition (IC50) on NS3/NS4 complexes is less than 0.01 µM.
With `CC(C)n1c(O[C@@H]2C[C@H]3C(=O)N[C@]4(C(=O)NS(=O)(=O)N(C)C)C[C@H]4/C=C\CCCCC[C@H](NC(=O)OC(C)(C)C)C(=O)N3C2)nc2c(-c3nc(-c4ccc(Br)cc4)cs3)cccc21` [Compound 137], the concentration giving a half-maximal response (EC50) in the experiment with hepatitis C replicon is greater than 0.1 µM. Also, the concentration for half-maximal inhibition (IC50) on NS3/NS4 complexes was less than 0.01 µM.
Regarding `CC(C)n1c(O[C@@H]2C[C@H]3C(=O)N[C@]4(C(=O)NS(=O)(=O)N(C)C)C[C@H]4/C=C\CCCCC[C@H](NC(=O)OC(C)(C)C)C(=O)N3C2)nc2c(-c3nc(-c4ccc(Cl)c(Cl)c4)cs3)cccc21` [Compound 138], the EC50 in the experiment on hepatitis C replicon is greater than 0.1 µM. Moreover, at NS3/NS4 complexes, the IC50 is less than 0.01 µM.
The corresponding values for `CC(C)n1c(O[C@@H]2C[C@H]3C(=O)N[C@]4(C(=O)NS(=O)(=O)N(C)C)C[C@H]4/C=C\CCCCC[C@H](NC(=O)OC(C)(C)C)C(=O)N3C2)nc2c(-c3nc(-c4ccc(F)cc4F)cs3)cccc21` [Compound 139] are 0.01 to 0.1 µM and less than 0.01 µM.
The like results for `CC(C)n1c(O[C@@H]2C[C@H]3C(=O)N[C@]4(C(=O)NS(=O)(=O)N(C)C)C[C@H]4/C=C\CCCCC[C@H](NC(=O)OC(C)(C)C)C(=O)N3C2)nc2c(-c3nc(-c4ccc(F)c(F)c4)cs3)cccc21` [Compound 140] were, in that order, less than 0.01 µM and less than 0.01 µM.
On to `CC(C)n1c(O[C@@H]2C[C@H]3C(=O)N[C@]4(C(=O)NS(=O)(=O)N(C)C)C[C@H]4/C=C\CCCCC[C@H](NC(=O)OC(C)(C)C)C(=O)N3C2)nc2c(-c3nc(-c4ccc(C(F)(F)F)cc4)cs3)cccc21` [Compound 141], for which the EC50 with hepatitis C replicon was greater than 0.1 µM. For the same compound, the IC50 on NS3/NS4 complexes was less than 0.01 µM.
Take `CC(C)n1c(O[C@@H]2C[C@H]3C(=O)N[C@]4(C(=O)NS(=O)(=O)N(C)C)C[C@H]4/C=C\CCCCC[C@H](NC(=O)OC(C)(C)C)C(=O)N3C2)nc2c(-c3nc(-c4ccc5c(c4)OCCO5)cs3)cccc21` [Compound 142]: in the experiment with hepatitis C replicon, the half-maximal effective concentration (EC50) was in the range of 0.01 to 0.1 µM. Also, the half-maximal inhibitory concentration (IC50) at NS3/NS4 complexes is less than 0.01 µM.
For the compound `CC(C)n1c(O[C@@H]2C[C@H]3C(=O)N[C@]4(C(=O)NS(=O)(=O)N(C)C)C[C@H]4/C=C\CCCCC[C@H](NC(=O)OC(C)(C)C)C(=O)N3C2)nc2c(-c3nc(-c4ccc(C(C)(C)C)cc4)cs3)cccc21` [Compound 143], the EC50 with hepatitis C replicon is 0.01 to 0.1 µM. At NS3/NS4 complexes, the half-inhibitory concentration (IC50) was less than 0.01 µM.
The like results for `Cc1cccc(Cc2csc(-c3cccc4c3nc(O[C@@H]3C[C@H]5C(=O)N[C@]6(C(=O)NS(=O)(=O)N(C)C)C[C@H]6/C=C\CCCCC[C@H](NC(=O)OC(C)(C)C)C(=O)N5C3)n4C(C)C)n2)c1` [Compound 144] were, in that order, less than 0.01 µM and less than 0.01 µM.
For the compound `Cc1ccc(Cc2csc(-c3cccc4c3nc(O[C@@H]3C[C@H]5C(=O)N[C@]6(C(=O)NS(=O)(=O)N(C)C)C[C@H]6/C=C\CCCCC[C@H](NC(=O)OC(C)(C)C)C(=O)N5C3)n4C(C)C)n2)cc1` [Compound 146], in the experiment with hepatitis C replicon, the EC50 was less than 0.01 µM. Besides, on NS3/NS4 complexes, the IC50 was less than 0.01 µM.
Take `COc1ccccc1Cc1csc(-c2cccc3c2nc(O[C@@H]2C[C@H]4C(=O)N[C@]5(C(=O)NS(=O)(=O)N(C)C)C[C@H]5/C=C\CCCCC[C@H](NC(=O)OC(C)(C)C)C(=O)N4C2)n3C(C)C)n1` [Compound 147]: the EC50 with hepatitis C replicon is less than 0.01 µM. Besides, on NS3/NS4 complexes, the half-inhibitory concentration (IC50) is less than 0.01 µM.
As for `CC(C)c1ccc(Cc2csc(-c3cccc4c3nc(O[C@@H]3C[C@H]5C(=O)N[C@]6(C(=O)NS(=O)(=O)N(C)C)C[C@H]6/C=C\CCCCC[C@H](NC(=O)OC(C)(C)C)C(=O)N5C3)n4C(C)C)n2)cc1` [Compound 148], the 50% effective concentration (EC50) with hepatitis C replicon fell in the range of 0.01 to 0.1 µM. In addition, the IC50 on NS3/NS4 complexes was less than 0.01 µM.
The like results for `CC(C)n1c(O[C@@H]2C[C@H]3C(=O)N[C@]4(C(=O)NS(=O)(=O)N(C)C)C[C@H]4/C=C\CCCCC[C@H](NC(=O)OC(C)(C)C)C(=O)N3C2)nc2c(-c3nc(Cc4cccc(C(F)(F)F)c4)cs3)cccc21` [Compound 149] were, in that order, 0.01 to 0.1 µM and less than 0.01 µM.
The corresponding values for `CC(C)n1c(O[C@@H]2C[C@H]3C(=O)N[C@]4(C(=O)NS(=O)(=O)N(C)C)C[C@H]4/C=C\CCCCC[C@H](NC(=O)OC(C)(C)C)C(=O)N3C2)nc2c(-c3nc(Cc4cccc(OC(F)(F)F)c4)cs3)cccc21` [Compound 150] are 0.01 to 0.1 µM and less than 0.01 µM.
The like results for `CC(C)n1c(O[C@@H]2C[C@H]3C(=O)N[C@]4(C(=O)NS(=O)(=O)N(C)C)C[C@H]4/C=C\CCCCC[C@H](NC(=O)OC(C)(C)C)C(=O)N3C2)nc2c(-c3nc(Cc4ccc(Cl)cc4)cs3)cccc21` [Compound 151] were, in that order, less than 0.01 µM and less than 0.01 µM.
Turning to `COc1cccc(Cc2csc(-c3cccc4c3nc(O[C@@H]3C[C@H]5C(=O)N[C@]6(C(=O)NS(=O)(=O)N(C)C)C[C@H]6/C=C\CCCCC[C@H](NC(=O)OC(C)(C)C)C(=O)N5C3)n4C(C)C)n2)c1` [Compound 152], the EC50 in the experiment with hepatitis C replicon is less than 0.01 µM. On NS3/NS4 complexes, the half-maximal inhibitory concentration (IC50) is less than 0.01 µM.
Consider `CC(C)n1c(O[C@@H]2C[C@H]3C(=O)N[C@]4(C(=O)NS(=O)(=O)N(C)C)C[C@H]4/C=C\CCCCC[C@H](NC(=O)OC(C)(C)C)C(=O)N3C2)nc2c(-c3nc(Cc4cccc(Br)c4)cs3)cccc21` [Compound 153], for which the EC50 in the experiment on hepatitis C replicon lay in the range of 0.01 to 0.1 µM. Further, the IC50 at NS3/NS4 complexes is less than 0.01 µM.
For the compound `CC(C)n1c(O[C@@H]2C[C@H]3C(=O)N[C@]4(C(=O)NS(=O)(=O)N(C)C)C[C@H]4/C=C\CCCCC[C@H](NC(=O)OC(C)(C)C)C(=O)N3C2)nc2c(-c3nc(Cc4ccc(-c5ccccc5)cc4)cs3)cccc21` [Compound 154], in the experiment with hepatitis C replicon, the EC50 was 0.01 to 0.1 µM. In addition, the concentration for half-maximal inhibition (IC50) at NS3/NS4 complexes is less than 0.01 µM.
The like results for `CC(C)n1c(O[C@@H]2C[C@H]3C(=O)N[C@]4(C(=O)NS(=O)(=O)N(C)C)C[C@H]4/C=C\CCCCC[C@H](NC(=O)OC(C)(C)C)C(=O)N3C2)nc2c(-c3nc(Cc4ccc(OC(F)(F)F)cc4)cs3)cccc21` [Compound 155] were, in that order, 0.01 to 0.1 µM and less than 0.01 µM.

For orientation: EC50 means the concentration that produces a half-maximal response. One may read the IC50 as the concentration needed to halve the response being measured.
